Common to all, as to test: relative viability (nuclei count vs DMSO), 5 days (fraction); higher = more cells survive
Compound in assay [1]: C1=CC2=C(C=CC(=C2)C=C3C(=O)NC(=NCC4=CC=CS4)S3)N=C1 [RO-3306] + COc1cc2c(Oc3ccc(NC(=O)C4(C(=O)Nc5ccc(F)cc5)CC4)cc3F)ccnc2cc1OCCCN1CCOCC1 [Foretinib] (partner 0.25 µM)
Summed up:
(§1)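 Lung cancer cell lines were pin-tool dosed in 1536-well plates on the day after seeding, with either a lone drug or a fixed anchor-drug dose plus five library-drug doses (not always all listed) in √10 steps. Nuclei were counted on 4× images after 5 days. Relative viability is the ratio of treated-well to vehicle-well nuclei counts, with each value a median of duplicate plates.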

Compound in assay [2]: C1=CC2=C(C=CC(=C2)C=C3C(=O)NC(=NCC4=CC=CS4)S3)N=C1 [RO-3306] + Cc1cc(Nc2cc(N3CCN(C)CC3)nc(Sc3ccc(NC(=O)C4CC4)cc3)n2)n[nH]1 [Tozasertib] (partner 0.1 µM)
Summed up: as §1

Compound in assay [3]: O=S(=O)(c1ccccc1)N(CC(F)(F)F)c1ccc(C(O)(C(F)(F)F)C(F)(F)F)cc1 + CS(=O)(=O)CCNCc1ccc(-c2ccc3ncnc(Nc4ccc(OCc5cccc(F)c5)c(Cl)c4)c3c2)o1 [Lapatinib] (partner 2 µM)
A digest of the protocol:
as §1

Compound in assay [4]: O=S(=O)(c1ccccc1)N(CC(F)(F)F)c1ccc(C(O)(C(F)(F)F)C(F)(F)F)cc1 + NC(=O)Nc1cc(-c2cccc(F)c2)sc1C(=O)N[C@H]1CCCNC1 [AZD7762] (partner 0.2 µM)
A digest of the protocol: as §1

Compound in assay [5]: O=S(=O)(c1ccccc1)N(CC(F)(F)F)c1ccc(C(O)(C(F)(F)F)C(F)(F)F)cc1 + Nc1ncn([C@H]2C[C@H](O)[C@@H](CO)O2)c(=O)n1 [Decitabine] (partner 2 µM)
A digest of the protocol: as §1

As to NCI-H2347, the relative viability was 0.982 in assay [1] (first compound 0.01 µM); 0.503 in assay [1] (first compound 0.03162 µM); 0.868 in assay [1] (first compound 0.1 µM); 0.702 in assay [1] (first compound 0.3162 µM); 0.741 in assay [1] (first compound 1 µM); 0.616 in assay [2] (first compound 0.01 µM). In addition, the relative viability in assay [2] (first compound 0.03162 µM) came to 0.616; in assay [2] (first compound 0.1 µM) it was 0.628; in assay [2] (first compound 0.3162 µM) it was 0.525; in assay [2] (first compound 1 µM), 0.514; in assay [3] (first compound 0.8 µM), 1.02; in assay [3] (first compound 2.53 µM), 1.03. For the same cell line, the relative viability in assay [3] (first compound 8 µM) amounted to 0.963; in assay [4] (first compound 0.8 µM) it was 0.942; in assay [4] (first compound 2.53 µM), 0.724; in assay [4] (first compound 8 µM) it was 0.742; in assay [5] (first compound 0.8 µM), 0.657; in assay [5] (first compound 2.53 µM), 0.614. Also, in assay [5] (first compound 8 µM), the relative viability turned out to be 0.66.
For NCI-H2405, the relative viability was 1.05 in assay [1] (first compound 0.01 µM); 1.06 in assay [1] (first compound 0.03162 µM); 1.03 in assay [1] (first compound 0.1 µM); 1.03 in assay [1] (first compound 0.3162 µM); 0.961 in assay [1] (first compound 1 µM); 0.746 in assay [2] (first compound 0.01 µM). Also, the relative viability in assay [2] (first compound 0.03162 µM) turned out to be 0.723; in assay [2] (first compound 0.1 µM) it was 0.704; in assay [2] (first compound 0.3162 µM), 0.675; in assay [2] (first compound 1 µM), 0.628; in assay [3] (first compound 0.8 µM), 1.01; in assay [3] (first compound 2.53 µM), 0.962. Further, the relative viability in assay [3] (first compound 8 µM) was found to be 1.15; in assay [4] (first compound 0.8 µM), 0.907; in assay [4] (first compound 2.53 µM) it was 0.665; in assay [4] (first compound 8 µM), 0.705; in assay [5] (first compound 0.8 µM), 0.841; in assay [5] (first compound 2.53 µM), 0.701. Besides, in assay [5] (first compound 8 µM), the relative viability was 0.797.
Consider NCI-H3122, for which the relative viability came out at 0.987 in assay [1] (first compound 0.01 µM); 0.984 in assay [1] (first compound 0.03162 µM); 0.94 in assay [1] (first compound 0.1 µM); 0.969 in assay [1] (first compound 0.3162 µM); 1.09 in assay [1] (first compound 1 µM); 0.449 in assay [2] (first compound 0.01 µM). Besides, the relative viability was found to be 0.413 in assay [2] (first compound 0.03162 µM); 0.42 in assay [2] (first compound 0.1 µM); 0.475 in assay [2] (first compound 0.3162 µM); 0.284 in assay [2] (first compound 1 µM); 0.975 in assay [3] (first compound 0.8 µM); 0.897 in assay [3] (first compound 2.53 µM). The relative viability in assay [3] (first compound 8 µM) was 1.03; in assay [4] (first compound 0.8 µM), 1.02; in assay [4] (first compound 2.53 µM) it was 0.935; in assay [4] (first compound 8 µM), 0.801; in assay [5] (first compound 0.8 µM), 0.301; in assay [5] (first compound 2.53 µM), 0.385. In addition, the relative viability in assay [5] (first compound 8 µM) was determined as 0.421.
Regarding PC-3 [JPC-3], the relative viability in assay [1] (first compound 0.01 µM) is 1.01; in assay [1] (first compound 0.03162 µM), 1; in assay [1] (first compound 0.1 µM) it was 1.01; in assay [1] (first compound 0.3162 µM) it was 1.07; in assay [1] (first compound 1 µM) it was 1.03; in assay [2] (first compound 0.01 µM) it was 0.872. The relative viability in assay [2] (first compound 0.03162 µM) amounted to 0.825; in assay [2] (first compound 0.1 µM), 0.892; in assay [2] (first compound 0.3162 µM), 0.852; in assay [2] (first compound 1 µM) it was 0.416; in assay [3] (first compound 0.8 µM) it was 0.482; in assay [3] (first compound 2.53 µM), 0.421. In addition, the relative viability in assay [3] (first compound 8 µM) amounted to 0.452; in assay [4] (first compound 2.53 µM), 0.763; in assay [4] (first compound 8 µM) it was 0.75; in assay [5] (first compound 2.53 µM) it was 0.817; in assay [5] (first compound 8 µM), 0.826.
On to PC-14, for which the relative viability in assay [1] (first compound 0.01 µM) was found to be 0.968; in assay [1] (first compound 0.03162 µM), 0.739; in assay [1] (first compound 0.1 µM), 0.935; in assay [1] (first compound 0.3162 µM), 1.04; in assay [1] (first compound 1 µM), 0.917; in assay [2] (first compound 0.01 µM) it was 0.78. Besides, the relative viability amounted to 0.572 in assay [2] (first compound 0.03162 µM); 0.527 in assay [2] (first compound 0.1 µM); 0.562 in assay [2] (first compound 0.3162 µM); 0.488 in assay [2] (first compound 1 µM); 0.26 in assay [3] (first compound 0.8 µM); 0.191 in assay [3] (first compound 2.53 µM). Further, the relative viability was 0.223 in assay [3] (first compound 8 µM); 0.216 in assay [4] (first compound 0.8 µM); 0.228 in assay [4] (first compound 2.53 µM); 0.216 in assay [4] (first compound 8 µM); 0.197 in assay [5] (first compound 0.8 µM); 0.19 in assay [5] (first compound 2.53 µM). The relative viability in assay [5] (first compound 8 µM) was determined as 0.209.
For RERF-LC-KJ, the relative viability in assay [1] (first compound 0.01 µM) is 0.844; in assay [1] (first compound 0.03162 µM), 0.683; in assay [1] (first compound 0.1 µM), 0.795; in assay [1] (first compound 0.3162 µM), 0.906; in assay [1] (first compound 1 µM), 0.958; in assay [2] (first compound 0.01 µM), 0.634. Moreover, the relative viability in assay [2] (first compound 0.03162 µM) is 0.434; in assay [2] (first compound 0.1 µM), 0.546; in assay [2] (first compound 0.3162 µM) it was 0.521; in assay [2] (first compound 1 µM), 0.463; in assay [3] (first compound 0.8 µM), 0.828; in assay [3] (first compound 2.53 µM) it was 0.715. Also, the relative viability in assay [3] (first compound 8 µM) stood at 0.693; in assay [4] (first compound 0.8 µM), 0.973; in assay [4] (first compound 2.53 µM), 0.889; in assay [4] (first compound 8 µM), 0.825; in assay [5] (first compound 0.8 µM), 0.752; in assay [5] (first compound 2.53 µM), 0.701. For the same cell line, the relative viability in assay [5] (first compound 8 µM) turned out to be 0.687.

Source of the values: the supplement of paper PMC10307832.
